Measurements reported in US12540131B2 (Merck Sharp & Dohme LLC, priority 2019, dated 2026).

Target: GST tagged truncated human mutant G2019S LRRK2 (Homo sapiens (Human), UniProt Q5S007, G2019S)
Experiment: LRRK2 Km ATP LanthaScreen Assay
Type: biochemical
Conditions: G2019S LRRK2, 134 μM ATP (Km ATP), mean values
How it was run: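 Enzyme (GST-tagged, truncated) was preincubated with compound for 15 min at RT in 50 mM Tris pH 8.5, 10 mM MgCl2, 0.01% Brij-35, 1 mM EGTA, 2 mM DTT and 0.05 mM orthovanadate. Fluorescein-LRRKtide and 134 μM ATP (Km) were then added for 90 min. EDTA and Tb-anti-pERM antibody stopped the reaction; the TR-FRET 520/495 ratio gave 4-parameter IC50s, reported as mean pIC50.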

Chain of GST tagged truncated human mutant G2019S LRRK2 (Q5S007 970-2527 G2019S): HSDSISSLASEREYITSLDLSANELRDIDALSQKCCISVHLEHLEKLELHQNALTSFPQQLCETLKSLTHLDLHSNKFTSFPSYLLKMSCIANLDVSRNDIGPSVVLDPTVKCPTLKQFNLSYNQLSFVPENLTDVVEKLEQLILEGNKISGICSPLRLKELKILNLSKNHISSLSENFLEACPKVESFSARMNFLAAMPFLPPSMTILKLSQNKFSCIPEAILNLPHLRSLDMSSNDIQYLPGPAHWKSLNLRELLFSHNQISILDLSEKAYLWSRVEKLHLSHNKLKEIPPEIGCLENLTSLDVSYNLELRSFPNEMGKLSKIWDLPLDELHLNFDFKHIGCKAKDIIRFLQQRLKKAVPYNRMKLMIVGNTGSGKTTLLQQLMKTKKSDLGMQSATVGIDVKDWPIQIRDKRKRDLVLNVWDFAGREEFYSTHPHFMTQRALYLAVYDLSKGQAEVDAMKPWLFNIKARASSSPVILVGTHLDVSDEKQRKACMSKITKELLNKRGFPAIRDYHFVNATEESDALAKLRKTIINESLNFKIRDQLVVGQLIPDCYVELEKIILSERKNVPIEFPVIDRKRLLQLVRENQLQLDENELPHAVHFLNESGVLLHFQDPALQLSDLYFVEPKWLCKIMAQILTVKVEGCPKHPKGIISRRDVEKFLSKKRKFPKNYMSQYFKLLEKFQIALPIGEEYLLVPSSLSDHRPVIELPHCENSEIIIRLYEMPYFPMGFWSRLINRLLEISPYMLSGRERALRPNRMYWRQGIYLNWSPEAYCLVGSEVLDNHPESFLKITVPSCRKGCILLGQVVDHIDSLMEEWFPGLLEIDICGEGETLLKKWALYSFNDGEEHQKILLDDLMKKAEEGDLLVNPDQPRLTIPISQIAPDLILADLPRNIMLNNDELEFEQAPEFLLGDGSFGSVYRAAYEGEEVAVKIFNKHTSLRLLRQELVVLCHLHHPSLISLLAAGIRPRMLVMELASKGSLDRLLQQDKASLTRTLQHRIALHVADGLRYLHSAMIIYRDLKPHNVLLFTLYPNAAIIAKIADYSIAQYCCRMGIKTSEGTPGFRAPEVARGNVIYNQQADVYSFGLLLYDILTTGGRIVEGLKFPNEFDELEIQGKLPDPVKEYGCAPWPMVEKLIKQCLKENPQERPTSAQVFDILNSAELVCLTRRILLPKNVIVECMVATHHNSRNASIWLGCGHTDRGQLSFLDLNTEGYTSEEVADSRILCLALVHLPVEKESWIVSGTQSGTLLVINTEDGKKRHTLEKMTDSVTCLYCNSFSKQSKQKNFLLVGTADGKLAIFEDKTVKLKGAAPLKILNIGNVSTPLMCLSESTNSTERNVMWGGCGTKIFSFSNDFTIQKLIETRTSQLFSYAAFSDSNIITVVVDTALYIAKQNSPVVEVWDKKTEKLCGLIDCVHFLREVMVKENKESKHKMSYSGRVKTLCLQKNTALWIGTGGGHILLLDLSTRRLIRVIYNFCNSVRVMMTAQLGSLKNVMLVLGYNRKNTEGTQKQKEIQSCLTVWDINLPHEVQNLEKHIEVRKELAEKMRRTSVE

Row | SMILES | LRRK2 pIC50
1 | Cc1nsc(Nc2ncc3cc(Cl)c([C@@H]4CCN(C5COC[C@H]5O)C[C@H]4F)cc3n2)c1Cl (single isomer, unassigned) [Ex-4.121, (3S,4S)(3S,4S) or (3S,4S)(3R,4R) or (3R,4R)(3S,4S) or (3R,4R)(3R,4R) 4-{6-chloro-2-[(4-chloro-3-methyl-1,2-thiazol-5-yl)amino]quinazolin-7-yl}-3-fluoropiperidin-1-yl]oxolan-3-ol] | 8.92
2 | Cc1c(Nc2ncc3cc(Cl)c(C4CCN(C5COCC5C#N)CC4)cc3n2)cnn1C1CC1 (single isomer, unassigned) [Ex-2.50, (3S,4S) or (3R,4R) or (3S,4R) or (3R,4S) 4-(4-{6-chloro-2-[(1-cyclopropyl-5-methyl-1H-pyrazol-4-yl)amino]quinazolin-7-yl}piperidin-1-yl)oxolane-3-carbonitrile] | 9.13
3 | O[C@@H]1COCC1N1CC[C@H](c2cc3nc(Nc4cnn(C5CC5(F)F)c4Cl)ncc3cc2Cl)[C@@H](F)C1 (single isomer, unassigned) [Ex-4.9, (R)(3S,4S)(3S,4S) or (R)(3S,4S)(3R,4R) or (R)(3R,4R)(3S,4S) or (R)(3R,4R)(3R,4R) or (S)(3S,4S)(3S,4S) or (S)(3S,4S)(3R,4R) or (S)(3R,4R)(3S,4S) or (S)(3R,4R)(3R,4R) 4-(4-(6-chloro-2-((5-chloro-1-(2,2-difluorocyclopropyl)-1H-pyrazol-4-yl)amino)quinazolin-7-yl)-3-fluoropiperidin-1-yl)tetrahydrofuran-3-ol] | >9.20
4 | Cc1c(Nc2ncc3cc(Cl)c(C4CCN(C5COC5)CC4)cc3n2)cnn1CCF [Ex-4.54, 6-chloro-N-[1-(2-fluoroethyl)-5-methyl-1H-pyrazol-4-yl]-7-[1-(oxetan-3-yl)piperidin-4-yl]quinazolin-2-amine] | >9.20
5 | CC1CC(c2cc3nc(Nc4cnn(C5CC5)c4Cl)ncc3cc2Cl)CC(C)N1C1COC1 (stereo not drawn) [Ex-4.118, cis or trans 6-chloro-N-(5-chloro-1-cyclopropyl-1H-pyrazol-4-yl)-7-(2,6-dimethyl-1-(oxetan-3-yl)piperidin-4-yl)quinazolin-2-amine] | 8.46
6 | Cc1c(Nc2ncc3cc(Cl)c([C@@H]4CCN([C@@H]5COC[C@@H]5O)C[C@H]4F)cc3n2)cnn1C (single isomer, unassigned) [Ex-4.255, (3S,4S)(3S,4S) or (3S,4S)(3R,4R) or (3R,4R)(3S,4S) or (3R,4R)(3R,4R) 4-(4-(6-chloro-2-((1,5-dimethyl-1H-pyrazol-4-yl)amino)quinazolin-7-yl)-3-fluoropiperidin-1-yl)tetrahydrofuran-3-ol] | >9.20
7 | CN1CC[C@@H](c2cc3nc(Nc4cnn(C5(C)CC5)c4Cl)ncc3cc2Cl)[C@H](O)C1 (single isomer, unassigned) [Ex-4.29, (3S,4S) or (3R,4R) 4-(6-chloro-2-{[5-chloro-1-(1-methylcyclopropyl)-1H-pyrazol-4-yl]amino}quinazolin-7-yl)-1-methylpiperidin-3-ol] | 8.07
8 | Cc1nsc(Nc2ncc3cc(Cl)c([C@@H]4CCN(C5CCOC5)C[C@H]4F)cc3n2)c1Cl (single isomer, unassigned) [Ex-8.21, (3S,4S)(S) or (3S,4S)(R) or (3R,4R)(S) or (3R,4R)(R) 6-chloro-N-(4-chloro-3-methyl-1,2-thiazol-5-yl)-7-[3-fluoro-1-(oxolan-3-yl)piperidin-4-yl]quinazolin-2-amine] | 8.44
9 | Cc1c(Nc2ncc3cc(Cl)c(C4CCN(C5COCC5C#N)CC4)cc3n2)cnn1C1CC1 (single isomer, unassigned) [Ex-2.49, (3S,4S) or (3R,4R) or (3S,4R) or (3R,4S) 4-(4-{6-chloro-2-[(1-cyclopropyl-5-methyl-1H-pyrazol-4-yl)amino]quinazolin-7-yl}piperidin-1-yl)oxolane-3-carbonitrile] | 8.88
10 | Cc1c(Nc2ncc3cc(Cl)c(C4CCN(C[C@@H](O)c5ccccc5F)CC4)cc3n2)cnn1C1CC1 [Ex-4.202, (1S)-2-(4-{6-chloro-2-[(1-cyclopropyl-5-methyl-1H-pyrazol-4-yl)amino]quinazolin-7-yl}piperidin-1-yl)-1-(2-fluorophenyl)ethan-1-ol] | 8.47
11 | CC1(N2CCC(c3cc4nc(Nc5cnn(C67CC(CO)(C6)C7)c5)ncc4cc3Cl)CC2)COC1 [Ex-2.57, {3-[4-({6-chloro-7-[1-(3-methyloxetan-3-yl)piperidin-4-yl]quinazolin-2-yl}amino)-1H-pyrazol-1-yl]bicyclo[1.1.1]pentan-1-yl}methanol] | >9.20
12 | Cc1cc(Nc2ncc3cc(Cl)c(C4CCN([C@H]5COC[C@H]5O)CC4)cc3n2)n(C)n1 (single isomer, unassigned) [Ex-2.68, (3S,4S) or (3R,4R) 4-(4-{6-chloro-2-[(1,3-dimethyl-1H-pyrazol-5-yl)amino]quinazolin-7-yl}piperidin-1-yl)oxolan-3-ol] | >9.20
13 | CC1(N2CC[C@@H](c3cc4nc(Nc5cnn(C6CC6)c5Cl)ncc4cc3Cl)[C@H](F)C2)COC1 (single isomer, unassigned) [Ex-4.99, (3S,4S) or (3R,4R) 6-chloro-N-(5-chloro-1-cyclopropyl-1H-pyrazol-4-yl)-7-[3-fluoro-1-(3-methyloxetan-3-yl)piperidin-4-yl]quinazolin-2-amine] | 8.01
14 | N#CC1CCC(N2CC[C@@H](c3cc4nc(Nc5cnn(C6CC6)c5Cl)ncc4cc3Cl)[C@H](F)C2)C1 (single isomer, unassigned) [Ex-4.108, (1R,3S)-3-((3S,4S) or (1S,3R)-3-((3S,4S) or (1R,3R)-3-((3S,4S) or (1S,3S)-3-((3S,4S) or (1R,3S)-3-((3R,4R) or (1S,3R)-3-((3R,4R) or (1R,3R)-3-((3R,4R) or 1S,3S)-3-((3R,4R) 4-(6-chloro-2-((5-chloro-1-cyclopropyl-1H-pyrazol-4-yl)amino)quinazolin-7-yl)-3-fluoropiperidin-1-yl)cyclopentane-1-carbonitrile] | 8.49
15 | Cc1cc2cnc(Nc3cnn(C4CC4)c3Cl)nc2cc1C1CCN([C@@H]2COC[C@@H]2O)[C@@H](C)C1 (single isomer, unassigned) [Ex-4.243, (3S,4S)(2S) or (3R,4R)(2S) 4-[4-{2-[(5-chloro-1-cyclopropyl-1H-pyrazol-4-yl)amino]-6-methylquinazolin-7-yl}-2-methylpiperidin-1-yl]oxolan-3-ol] | >9.20
16 | [2H]C1(N2CCC(c3cc4nc(Nc5cnn(C6CC6)c5Cl)ncc4cc3Cl)CC2)COC1 [Ex-4.57, 6-chloro-N-(5-chloro-1-cyclopropyl-1H-pyrazol-4-yl)-7-(1-(oxetan-3-yl-3-d)piperidin-4-yl)quinazolin-2-amine] | >9.20
17 | Cc1cc2cnc(Nc3cnn(C)c3C)nc2cc1[C@@H]1CCN([C@H]2COC[C@H]2O)C[C@H]1F (single isomer, unassigned) [Ex-4.258, (3S,4S)(3S,4S) or (3S,4S)(3R,4R) or (3R,4R)(3S,4S) or (3R,4R)(3R,4R) 4-(4-(2-((1,5-dimethyl-1H-pyrazol-4-yl)amino)-6-methylquinazolin-7-yl)-3-fluoropiperidin-1-yl)tetrahydrofuran-3-ol] | 7.39
18 | Cc1cc2cnc(Nc3cnn(C4CC4(F)F)c3C)nc2cc1[C@@H]1CCN([C@@H]2COC[C@@H]2O)C[C@H]1F (single isomer, unassigned) [Ex-4.144, (R)(3S,4S)(3S,4S) or (R)(3S,4S)(3R,4R) or (R)(3R,4R)(3S,4S) or (R)(3R,4R)(3R,4R) or (S)(3S,4S)(3S,4S) or (S)(3S,4S)(3R,4R) or (S)(3R,4R)(3S,4S) or (S)(3R,4R)(3R,4R) 4-[4-(2-{[1-(2,2-difluorocyclopropyl)-5-methyl-1H-pyrazol-4-yl]amino}-6-methylquinazolin-7-yl)-3-fluoropiperidin-1-yl]oxolan-3-ol] | 8.68
19 | CC(C)(O)Cn1ncc(Nc2ncc3cc(Cl)c(C4CCNCC4)cc3n2)c1Cl [Ex-4.94, 1-(5-chloro-4-{[6-chloro-7-(piperidin-4-yl)quinazolin-2-yl]amino}-1H-pyrazol-1-yl)-2-methylpropan-2-ol] | 8.46
20 | Cc1cc(Nc2ncc3cc(Cl)c([C@H]4CCN(C5COC5)C[C@@H]4F)cc3n2)sn1 (single isomer, unassigned) [Ex-4.51, (3S,4S) or (3R,4R) 6-chloro-7-[3-fluoro-1-(oxetan-3-yl)piperidin-4-yl]-N-(3-methyl-1,2-thiazol-5-yl)quinazolin-2-amine] | >9.20

Same assay, conditions: G2019S LRRK2, 134 μM ATP (Km ATP), mean values; read-out: LRRK2 pIC50 (converted)

Row | SMILES | IC50
21 | CC1(N2CCC(n3cc(Nc4ncc5cc(Cl)c(C6CC67CC7)cc5n4)cn3)CC2)COC1 (single isomer, unassigned) [Ex-2.5, (S) or (R) 6-chloro-N-{1-[1-(3-methyloxetan-3-yl)piperidin-4-yl]-1H-pyrazol-4-yl}-7-(spiro[2.2]pentan-1-yl)quinazolin-2-amine] | 2.19 nM
22 | Cc1c(Nc2ncc3cc(Cl)c(C4CCN(C5(C)COC5)CC4)cc3n2)cnn1C1CCOC1 (single isomer, unassigned) [Ex-2.25, (S) or (R) 6-chloro-7-[1-(3-methyloxetan-3-yl)piperidin-4-yl]-N-[5-methyl-1-(oxolan-3-yl)-1H-pyrazol-4-yl]quinazolin-2-amine] | 0.891 nM
23 | Cc1c(Nc2ncc3cc(Cl)c(C4CCN(C5COC5)CC4)cc3n2)cnn1C1CC1(F)F (single isomer, unassigned) [Ex-2.73, (S) or (R) 6-chloro-N-[1-(2,2-difluorocyclopropyl)-5-methyl-1H-pyrazol-4-yl]-7-[1-(oxetan-3-yl)piperidin-4-yl]quinazolin-2-amine] | 0.955 nM
24 | CC1(N2CCC(c3cc4nc(Nc5cnn(C67CC(C6)C7)c5)ncc4cc3Cl)CC2)COC1 [Ex-2.18, N-(1-(bicyclo[1.1.1]pentan-1-yl)-1H-pyrazol-4-yl)-6-chloro-7-(1-(3-methyloxetan-3-yl)piperidin-4-yl)quinazolin-2-amine] | < 0.631 nM
